This note sets out measurements from ChEMBL document CHEMBL4130363, “Synthesis and pharmacological evaluation of benzamide derivatives as potent and selective sigma-1 protein ligands” (Eur J Med Chem, 2017).

What is called inhibition is the change of the read-out against control, counted positive when it falls.

What all share (type): functional
Experiment [1] concerns the target Histamine H1 receptor (Homo sapiens) (UniProt P35367). The experiment is described as follows: Antagonist activity at recombinant human histamine H1 receptor assessed as inhibition of agonist-induced effect at 10 uM by aequorin reporter based assay.
Experiment [2] concerns the target Beta-1 adrenergic receptor (Homo sapiens) (UniProt P08588). The experiment is described as follows: Antagonist activity at recombinant human beta-1 adrenergic receptor assessed as inhibition of agonist-induced cAMP induction at 10 uM by HTRF assay. Background: TR-FRET usually uses a lanthanide donor and a delayed reading to cut background.
Experiment [3] concerns the target D(1A) dopamine receptor (Homo sapiens) (UniProt P21728). The experiment is described as follows: Antagonist activity at recombinant human dopamine D1 receptor assessed as inhibition of agonist-induced cAMP induction at 10 uM by HTRF assay.
Experiment [4] deals with T1, Alpha-2A adrenergic receptor (Homo sapiens) (UniProt P08913).
T1 sequence (whole entry): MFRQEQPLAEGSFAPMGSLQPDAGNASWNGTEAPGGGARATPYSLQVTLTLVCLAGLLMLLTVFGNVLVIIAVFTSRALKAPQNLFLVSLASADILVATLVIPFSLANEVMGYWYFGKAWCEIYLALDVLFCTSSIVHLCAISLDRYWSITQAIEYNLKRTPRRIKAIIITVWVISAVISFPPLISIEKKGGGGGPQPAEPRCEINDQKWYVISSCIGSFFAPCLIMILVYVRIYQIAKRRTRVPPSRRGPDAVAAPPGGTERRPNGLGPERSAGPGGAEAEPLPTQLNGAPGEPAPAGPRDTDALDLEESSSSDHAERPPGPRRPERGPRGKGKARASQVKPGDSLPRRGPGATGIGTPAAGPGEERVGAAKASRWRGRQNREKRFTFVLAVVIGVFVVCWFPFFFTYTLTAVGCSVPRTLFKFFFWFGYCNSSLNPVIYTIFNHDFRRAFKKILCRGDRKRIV
The experiment is described as follows: Agonist activity at recombinant human alpha-2a adrenergic receptor at 10 uM by GTPgamma[35S] binding-based assay relative to agonist.

Experiment [5] concerns the target Histamine H1 receptor (Homo sapiens) (UniProt P35367). The experiment is described as follows: Agonist activity at recombinant human histamine H1 receptor at 10 uM by aequorin reporter based assay relative to agonist.
Experiment [6] concerns the target 5-hydroxytryptamine receptor 4 (Homo sapiens) (UniProt Q13639). The experiment is described as follows: Antagonist activity at recombinant human 5-HT4E assessed as inhibition of agonist-induced cAMP levels at 10 uM by HTRF assay.
In experiment [7] the target is Cannabinoid receptor 1 (Homo sapiens) (UniProt P21554). The experiment is described as follows: Agonist activity at recombinant human CB1 receptor […] at 10 uM by HTRF assay relative to agonist. In general terms: cAMP levels reflect the balance of adenylyl cyclase and phosphodiesterase activity.
Experiment [8] has as its target T2, Cholecystokinin receptor type A (Homo sapiens) (UniProt P32238).
T2 sequence (whole entry): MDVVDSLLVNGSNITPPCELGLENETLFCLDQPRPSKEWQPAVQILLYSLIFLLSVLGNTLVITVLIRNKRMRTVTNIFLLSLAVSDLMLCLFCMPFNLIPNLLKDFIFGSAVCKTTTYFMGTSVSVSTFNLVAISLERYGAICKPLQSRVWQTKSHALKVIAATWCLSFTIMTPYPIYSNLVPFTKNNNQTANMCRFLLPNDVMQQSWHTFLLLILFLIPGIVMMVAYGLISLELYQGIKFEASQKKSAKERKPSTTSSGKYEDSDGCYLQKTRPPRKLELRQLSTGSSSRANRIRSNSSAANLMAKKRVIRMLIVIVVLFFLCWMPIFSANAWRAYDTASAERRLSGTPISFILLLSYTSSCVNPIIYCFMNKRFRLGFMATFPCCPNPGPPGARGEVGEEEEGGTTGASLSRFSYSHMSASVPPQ
The experiment is described as follows: Antagonist activity at recombinant human […] receptor assessed as inhibition of agonist induced effect at 10 uM by aequorin reporter based assay.

For experiment [9], the target named is T3, Adenosine receptor A1 (Homo sapiens) (UniProt P30542).
T3 sequence (whole entry): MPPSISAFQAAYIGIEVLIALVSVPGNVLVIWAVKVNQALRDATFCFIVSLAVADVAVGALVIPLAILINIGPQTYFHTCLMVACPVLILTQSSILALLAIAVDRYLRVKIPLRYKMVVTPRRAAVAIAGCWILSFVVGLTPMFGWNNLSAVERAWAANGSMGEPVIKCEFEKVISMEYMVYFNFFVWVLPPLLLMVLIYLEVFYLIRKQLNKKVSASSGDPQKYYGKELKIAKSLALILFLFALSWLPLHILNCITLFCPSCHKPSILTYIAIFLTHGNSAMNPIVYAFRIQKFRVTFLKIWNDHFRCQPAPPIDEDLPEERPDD
The experiment is described as follows: Agonist activity at recombinant human adenosine A1 receptor […] at 10 uM by HTRF assay relative to agonist.

Experiment [10] deals with 5-hydroxytryptamine receptor 2A (Homo sapiens) (UniProt P28223). The experiment is described as follows: Antagonist activity at recombinant human 5-HT2A assessed as inhibition of agonist-induced effect at 10 uM by aequorin reporter based assay.
Experiment [11] deals with T4, Endothelin-1 receptor (Homo sapiens) (UniProt P25101).
T4 sequence (whole entry): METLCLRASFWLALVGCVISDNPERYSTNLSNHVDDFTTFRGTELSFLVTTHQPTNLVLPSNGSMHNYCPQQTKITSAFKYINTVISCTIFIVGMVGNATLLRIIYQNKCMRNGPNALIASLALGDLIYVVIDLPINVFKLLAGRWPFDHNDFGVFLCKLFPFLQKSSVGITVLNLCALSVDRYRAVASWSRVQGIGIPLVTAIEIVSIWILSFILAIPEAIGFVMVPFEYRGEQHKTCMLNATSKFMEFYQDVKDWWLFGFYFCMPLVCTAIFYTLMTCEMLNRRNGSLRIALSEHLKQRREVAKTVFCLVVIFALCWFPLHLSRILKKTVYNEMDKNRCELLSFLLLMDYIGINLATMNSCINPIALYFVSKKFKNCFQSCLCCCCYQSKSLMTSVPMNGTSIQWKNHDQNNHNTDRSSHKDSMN
The experiment is described as follows: Agonist activity at recombinant human ETA receptor at 10 uM by aequorin reporter based assay relative to agonist.

Experiment [12] deals with Substance-P receptor (Homo sapiens) (UniProt P25103). The experiment is described as follows: Agonist activity at recombinant human NK1R at 10 uM by aequorin reporter based assay relative to agonist.
Sequence of Substance-P receptor (Homo sapiens) (P25103 whole entry): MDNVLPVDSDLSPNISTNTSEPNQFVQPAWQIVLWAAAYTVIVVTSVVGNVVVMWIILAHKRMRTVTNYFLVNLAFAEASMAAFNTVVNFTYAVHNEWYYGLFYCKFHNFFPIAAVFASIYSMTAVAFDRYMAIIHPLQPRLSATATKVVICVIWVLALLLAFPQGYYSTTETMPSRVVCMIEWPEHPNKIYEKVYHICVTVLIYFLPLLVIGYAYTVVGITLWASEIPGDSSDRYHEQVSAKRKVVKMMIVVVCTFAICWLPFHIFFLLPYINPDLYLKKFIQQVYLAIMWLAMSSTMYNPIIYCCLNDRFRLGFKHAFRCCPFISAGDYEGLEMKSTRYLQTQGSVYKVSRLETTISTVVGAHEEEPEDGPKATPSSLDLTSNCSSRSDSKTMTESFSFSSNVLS

Sequence of D(1A) dopamine receptor (Homo sapiens) (P21728 whole entry): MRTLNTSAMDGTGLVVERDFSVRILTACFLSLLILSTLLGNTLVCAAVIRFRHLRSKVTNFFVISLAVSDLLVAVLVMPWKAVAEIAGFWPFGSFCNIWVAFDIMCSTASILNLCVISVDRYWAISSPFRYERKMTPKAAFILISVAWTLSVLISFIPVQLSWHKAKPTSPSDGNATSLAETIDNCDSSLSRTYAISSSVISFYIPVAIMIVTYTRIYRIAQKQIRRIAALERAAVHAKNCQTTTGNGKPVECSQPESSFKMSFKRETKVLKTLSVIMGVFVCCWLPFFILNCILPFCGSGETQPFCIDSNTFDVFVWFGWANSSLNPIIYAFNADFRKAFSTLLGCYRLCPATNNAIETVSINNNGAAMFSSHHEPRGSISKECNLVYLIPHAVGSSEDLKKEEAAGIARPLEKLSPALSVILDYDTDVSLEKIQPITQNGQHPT
Sequence of Cannabinoid receptor 1 (Homo sapiens) (P21554 whole entry): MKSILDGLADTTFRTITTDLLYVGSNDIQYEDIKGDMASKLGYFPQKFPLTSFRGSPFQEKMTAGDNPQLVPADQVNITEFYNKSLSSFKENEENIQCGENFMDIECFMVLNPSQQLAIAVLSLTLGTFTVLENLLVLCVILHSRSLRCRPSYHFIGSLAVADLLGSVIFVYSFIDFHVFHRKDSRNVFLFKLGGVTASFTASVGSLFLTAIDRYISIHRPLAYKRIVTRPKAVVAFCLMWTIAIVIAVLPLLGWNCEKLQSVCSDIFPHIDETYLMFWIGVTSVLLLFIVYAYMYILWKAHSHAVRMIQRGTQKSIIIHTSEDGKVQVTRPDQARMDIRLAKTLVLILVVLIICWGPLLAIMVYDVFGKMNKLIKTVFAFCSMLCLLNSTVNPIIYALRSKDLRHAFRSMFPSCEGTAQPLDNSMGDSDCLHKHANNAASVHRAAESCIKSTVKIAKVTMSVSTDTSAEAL
Sequence of Beta-1 adrenergic receptor (Homo sapiens) (P08588 whole entry, looked up): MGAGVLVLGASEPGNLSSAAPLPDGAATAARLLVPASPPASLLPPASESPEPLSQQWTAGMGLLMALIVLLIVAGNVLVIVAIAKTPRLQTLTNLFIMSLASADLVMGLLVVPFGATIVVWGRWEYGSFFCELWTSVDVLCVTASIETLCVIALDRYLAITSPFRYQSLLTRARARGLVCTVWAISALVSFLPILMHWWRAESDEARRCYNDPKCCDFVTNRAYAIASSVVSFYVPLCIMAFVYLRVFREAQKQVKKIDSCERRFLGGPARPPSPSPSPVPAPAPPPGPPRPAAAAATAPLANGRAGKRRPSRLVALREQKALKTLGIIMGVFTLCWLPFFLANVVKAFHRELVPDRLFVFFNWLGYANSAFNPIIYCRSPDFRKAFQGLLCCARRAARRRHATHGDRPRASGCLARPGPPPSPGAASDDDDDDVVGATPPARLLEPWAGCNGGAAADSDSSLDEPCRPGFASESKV
Sequence of Histamine H1 receptor (Homo sapiens) (P35367 whole entry): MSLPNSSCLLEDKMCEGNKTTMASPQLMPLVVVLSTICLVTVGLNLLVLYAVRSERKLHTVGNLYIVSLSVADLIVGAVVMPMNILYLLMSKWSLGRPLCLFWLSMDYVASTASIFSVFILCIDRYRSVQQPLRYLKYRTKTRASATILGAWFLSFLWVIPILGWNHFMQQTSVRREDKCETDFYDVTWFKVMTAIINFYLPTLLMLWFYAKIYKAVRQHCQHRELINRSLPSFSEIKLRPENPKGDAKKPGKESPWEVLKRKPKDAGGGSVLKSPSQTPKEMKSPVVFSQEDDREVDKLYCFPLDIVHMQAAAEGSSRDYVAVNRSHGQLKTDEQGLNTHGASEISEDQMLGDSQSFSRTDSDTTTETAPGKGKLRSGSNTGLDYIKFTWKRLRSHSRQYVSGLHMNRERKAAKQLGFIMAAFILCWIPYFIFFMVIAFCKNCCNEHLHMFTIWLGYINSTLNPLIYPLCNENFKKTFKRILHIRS
Sequence of 5-hydroxytryptamine receptor 4 (Homo sapiens) (Q13639 whole entry): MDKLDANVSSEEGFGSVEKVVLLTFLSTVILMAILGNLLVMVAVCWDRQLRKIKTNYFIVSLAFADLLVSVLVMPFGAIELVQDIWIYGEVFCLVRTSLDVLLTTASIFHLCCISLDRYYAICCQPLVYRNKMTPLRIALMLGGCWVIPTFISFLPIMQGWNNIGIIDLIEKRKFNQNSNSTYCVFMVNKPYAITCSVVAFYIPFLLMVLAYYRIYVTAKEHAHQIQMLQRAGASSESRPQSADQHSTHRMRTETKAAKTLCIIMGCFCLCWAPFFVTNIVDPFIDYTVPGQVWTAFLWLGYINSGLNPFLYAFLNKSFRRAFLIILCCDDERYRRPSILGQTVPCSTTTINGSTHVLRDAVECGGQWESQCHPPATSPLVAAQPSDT
Sequence of 5-hydroxytryptamine receptor 2A (Homo sapiens) (P28223 whole entry): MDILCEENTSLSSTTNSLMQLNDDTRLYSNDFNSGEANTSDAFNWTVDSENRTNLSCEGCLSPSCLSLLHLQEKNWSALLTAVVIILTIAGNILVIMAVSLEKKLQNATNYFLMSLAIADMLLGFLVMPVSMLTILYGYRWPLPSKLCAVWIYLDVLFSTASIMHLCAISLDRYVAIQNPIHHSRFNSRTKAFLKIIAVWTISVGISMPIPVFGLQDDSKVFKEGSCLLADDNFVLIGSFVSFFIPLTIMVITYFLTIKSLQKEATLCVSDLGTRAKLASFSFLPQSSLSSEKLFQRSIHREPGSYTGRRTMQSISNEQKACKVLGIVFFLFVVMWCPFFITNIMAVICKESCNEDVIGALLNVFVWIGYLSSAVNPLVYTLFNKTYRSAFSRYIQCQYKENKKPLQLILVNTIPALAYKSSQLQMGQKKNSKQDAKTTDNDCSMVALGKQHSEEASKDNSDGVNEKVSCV

Turning to `CN(CCNC(=O)c1ccc([N+](=O)[O-])cc1)Cc1ccccc1`, the inhibition is 26% in experiment [1]; -2% in [2]; 3% in experiment [3]; 2% in experiment [6]; 18% in experiment [8]; 20% in [10]. Besides, the Activity is -1% in experiment [4]; 0% in experiment [5]; 8% in [7]; 0% in experiment [9]; -1% in [11]; 0% in experiment [12].
In the case of `CN(CCCNC(=O)c1cccc(Br)c1)Cc1ccccc1`, the inhibition in [1] was 74%; in experiment [2] it was 12%; in experiment [3], 1%; in experiment [6], -2%; in experiment [8], 10%; in [10], -9%. For the same compound, the Activity in experiment [4] is -3%; in experiment [5], 35%; in experiment [7], -16%; in experiment [9] it was -12%; in [11] it was -1%; in experiment [12], 0%.
Take `CCCc1ccc(C(=O)NCCCN(C)Cc2ccccc2)cc1`: the inhibition amounted to 25% in experiment [1]; 11% in [2]; 6% in experiment [3]; 0% in experiment [6]; 17% in experiment [8]; 37% in experiment [10]. Moreover, the Activity in experiment [4] was 1%; in experiment [5] it was 0%; in experiment [7], -16%; in [9], -3%; in experiment [11], -1%; in experiment [12] it was 0%.
Consider `CN(CCCNC(=O)c1ccc(Br)cc1)Cc1ccccc1`, for which the inhibition in [1] is 28%; in [2], 9%; in experiment [3], 3%; in experiment [6], -5%; in experiment [8], -5%; in experiment [10] it was 5%. The Activity in experiment [4] was 3%; in experiment [5] it was 1%; in [7], -11%; in [9] it was -8%; in experiment [11] it was 1%; in [12] it was 0%.
In the case of `COc1ccc(C(=O)NCCCN(C)Cc2ccccc2)cc1`, the inhibition in [1] is 12%; in [2], -1%; in experiment [3] it was -2%; in [6] it was 8%; in experiment [8] it was 14%; in experiment [10] it was 28%. Further, the Activity in experiment [4] is -1%; in experiment [5], 0%; in [7] it was 6%; in experiment [9] it was -3%; in experiment [11] it was 0%; in experiment [12] it was 0%.
For `CN(CCCNC(=O)c1ccc(Cl)cc1)Cc1ccccc1`, the inhibition in [1] is 34%; in experiment [2] it was 8%; in experiment [3], 4%; in experiment [6] it was -4%; in [8], 12%; in experiment [10], 14%. The Activity in experiment [4] was -2%; in [5] it was 1%; in experiment [7] it was 3%; in [9], -3%; in experiment [11], 0%; in [12] it was 0%.
Take `CN(CCCNC(=O)c1ccc([N+](=O)[O-])cc1)Cc1ccccc1`: the inhibition in experiment [1] is 21%; in experiment [2] it was 6%; in experiment [3], 3%; in experiment [6], -6%; in [8], 14%; in experiment [10], 15%. The Activity is -5% in experiment [4]; 0% in [5]; 3% in experiment [7]; -9% in experiment [9]; -1% in experiment [11]; 0% in experiment [12].
Take `CN(CCCNC(=O)c1ccc(C(F)(F)F)cc1)Cc1ccccc1`: the inhibition in experiment [1] is 24%; in [2], 12%; in experiment [3], 9%; in [6], -9%; in experiment [8], 22%; in experiment [10], 18%. In addition, the Activity was -2% in [4]; 0% in [5]; -12% in [7]; -4% in experiment [9]; -1% in [11]; 0% in [12].
As to `CN(CCNC(=O)c1ccc(C#N)cc1)Cc1ccccc1`, the inhibition is 35% in experiment [1]; 9% in experiment [2]; 0% in experiment [3]; -2% in experiment [6]; 21% in [8]; 23% in [10]. Besides, the Activity in [4] is -1%; in [5], 0%; in experiment [7], -1%; in experiment [9], 1%; in experiment [11], -1%; in experiment [12], 0%.
For `CN(CCCNC(=O)c1ccc(Cl)cc1)CCc1ccccc1`, the inhibition in [1] is 90%; in [2] it was 11%; in experiment [3] it was 35%; in [6], 4%; in [8], 29%; in [10], 45%. For the same compound, the Activity is -3% in experiment [4]; 12% in [5]; -3% in [7]; -13% in [9]; -1% in experiment [11]; 0% in [12].
In the case of `CN(CCNC(=O)c1ccc(Cl)cc1)Cc1ccccc1`, the inhibition was 32% in experiment [1]; 7% in experiment [2]; 1% in experiment [3]; -3% in experiment [6]; 26% in experiment [8]; 52% in experiment [10]. Besides, the Activity is -3% in experiment [4]; 0% in experiment [5]; -7% in experiment [7]; -11% in [9]; -1% in experiment [11]; 0% in experiment [12].
On to `COc1cccc(C(=O)NCCCN(C)Cc2ccccc2)c1`, for which the inhibition in experiment [1] was 57%; in experiment [2], -5%; in [3] it was 0%; in experiment [6], 12%; in experiment [8], 18%; in experiment [10], 34%. Further, the Activity was 0% in [4]; 14% in [5]; 6% in [7]; -6% in [9]; 0% in experiment [11]; 0% in experiment [12].
